Columns and labels:
[1] = target: Ribosomal protein S6 kinase alpha-5 (Homo sapiens) (UniProt O75582); test: Selectivity interaction (Kinase panel (KiNativ target engagement assay in Jurkat cells)) EUB0001635a RPS6KA5; assay type: cell-based; details: Selectivity number of off-targets 0.0, Selectivity number of targets 233.0, Source Knowledge https://www.sciencedirect.com/science/article/pii/S2451945619300674?via%3Dihub, at 1 µM
[2] = target: Phosphatidylinositol 4-kinase beta (Homo sapiens, UniProt Q9UBF8); test: Selectivity interaction (Kinase panel (KiNativ target engagement assay in Jurkat cells)) EUB0001635a PI4KB; assay type: cell-based; details: Selectivity number of off-targets 0.0, Selectivity number of targets 233.0, Source Knowledge https://www.sciencedirect.com/science/article/pii/S2451945619300674?via%3Dihub, at 1 µM
[3] = target: T1, Cyclin-dependent kinase-like 5 (Homo sapiens) (UniProt O76039); test: Selectivity interaction (KinomeScan (DiscoverX)) EUB0000595a CDKL5; details: at 10 µM
T1 sequence (whole entry): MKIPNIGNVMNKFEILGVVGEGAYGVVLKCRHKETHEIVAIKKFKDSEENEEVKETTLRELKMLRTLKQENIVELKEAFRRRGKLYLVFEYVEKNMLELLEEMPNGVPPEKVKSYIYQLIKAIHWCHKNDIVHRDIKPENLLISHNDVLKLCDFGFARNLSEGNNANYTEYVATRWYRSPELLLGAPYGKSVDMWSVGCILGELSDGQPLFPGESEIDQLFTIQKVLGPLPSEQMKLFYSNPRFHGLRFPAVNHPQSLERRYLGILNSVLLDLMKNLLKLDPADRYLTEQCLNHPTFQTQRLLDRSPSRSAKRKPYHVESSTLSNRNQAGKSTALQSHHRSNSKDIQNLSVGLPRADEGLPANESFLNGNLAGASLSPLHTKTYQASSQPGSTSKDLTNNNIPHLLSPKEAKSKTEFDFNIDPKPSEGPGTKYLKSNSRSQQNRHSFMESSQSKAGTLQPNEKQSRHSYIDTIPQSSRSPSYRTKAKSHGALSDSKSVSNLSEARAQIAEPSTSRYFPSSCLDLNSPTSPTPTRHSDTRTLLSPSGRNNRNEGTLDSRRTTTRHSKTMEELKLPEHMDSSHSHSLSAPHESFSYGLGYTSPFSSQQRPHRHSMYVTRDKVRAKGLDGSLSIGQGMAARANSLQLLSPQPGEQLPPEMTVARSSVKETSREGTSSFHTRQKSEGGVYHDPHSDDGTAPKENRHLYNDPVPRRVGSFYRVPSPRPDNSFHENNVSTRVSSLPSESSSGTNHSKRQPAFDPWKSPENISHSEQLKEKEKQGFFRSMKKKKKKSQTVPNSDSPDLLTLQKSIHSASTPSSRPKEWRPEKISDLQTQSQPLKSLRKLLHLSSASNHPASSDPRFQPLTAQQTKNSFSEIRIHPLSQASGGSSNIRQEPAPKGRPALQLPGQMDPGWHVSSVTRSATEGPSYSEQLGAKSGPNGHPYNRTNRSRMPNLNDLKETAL

[4] = target: Serine/threonine-protein kinase Nek4 (Homo sapiens) (UniProt P51957); test: Selectivity interaction (KinomeScan (DiscoverX)) EUB0000695a NEK4; details: at 100 nM
[5] = target: Serine/threonine-protein kinase 33 (Homo sapiens) (UniProt Q9BYT3); test: Selectivity interaction (KinomeScan (DiscoverX)) EUB0000666a STK33; details: at 10 µM
[6] = target: T2, Dual specificity tyrosine-phosphorylation-regulated kinase 2 (Homo sapiens) (UniProt Q92630); test: Selectivity interaction (Kinase screening (Nanosyn)) EUB0000604a DYRK2
T2 sequence (whole entry): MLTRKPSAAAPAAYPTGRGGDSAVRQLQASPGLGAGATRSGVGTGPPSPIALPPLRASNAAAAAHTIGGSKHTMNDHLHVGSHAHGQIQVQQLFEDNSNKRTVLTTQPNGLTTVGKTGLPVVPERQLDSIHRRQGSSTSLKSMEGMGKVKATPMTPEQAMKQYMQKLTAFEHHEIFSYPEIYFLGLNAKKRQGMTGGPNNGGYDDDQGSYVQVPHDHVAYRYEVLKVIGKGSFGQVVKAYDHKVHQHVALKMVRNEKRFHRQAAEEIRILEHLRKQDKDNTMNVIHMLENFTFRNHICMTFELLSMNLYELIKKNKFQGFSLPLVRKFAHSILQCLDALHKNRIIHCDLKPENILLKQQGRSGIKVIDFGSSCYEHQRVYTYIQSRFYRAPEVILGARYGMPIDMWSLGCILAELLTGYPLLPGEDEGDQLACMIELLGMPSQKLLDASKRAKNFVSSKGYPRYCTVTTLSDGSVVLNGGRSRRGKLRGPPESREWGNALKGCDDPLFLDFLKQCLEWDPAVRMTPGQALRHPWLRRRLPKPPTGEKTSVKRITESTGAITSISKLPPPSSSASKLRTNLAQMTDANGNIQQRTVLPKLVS

[7] = target: Tyrosine-protein kinase Lck (Homo sapiens, UniProt P06239); test: Selectivity interaction (Kinase panel (33PanQinase(R) Activity Assay)) EUB0000877a LCK
[8] = target: Serine/threonine-protein kinase 35 (Homo sapiens) (UniProt Q8TDR2); test: Selectivity interaction (KinomeScan (DiscoverX)) EUB0000607a STK35; details: at 10 µM
[9] = target: Serine/threonine-protein kinase Nek7 (Homo sapiens) (UniProt Q8TDX7); test: Selectivity interaction (KinomeScan (DiscoverX)) EUB0000655a NEK7; details: at 10 µM
[10] = target: T3, Serine/threonine-protein kinase RIO3 (Homo sapiens) (UniProt O14730); test: Selectivity interaction (Ambit KINOMEscan and KiNATiv profiling in Jurkat cells) EUB0000090b RIOK3; assay type: cell-based; details: at 1 µM
T3 sequence (whole entry): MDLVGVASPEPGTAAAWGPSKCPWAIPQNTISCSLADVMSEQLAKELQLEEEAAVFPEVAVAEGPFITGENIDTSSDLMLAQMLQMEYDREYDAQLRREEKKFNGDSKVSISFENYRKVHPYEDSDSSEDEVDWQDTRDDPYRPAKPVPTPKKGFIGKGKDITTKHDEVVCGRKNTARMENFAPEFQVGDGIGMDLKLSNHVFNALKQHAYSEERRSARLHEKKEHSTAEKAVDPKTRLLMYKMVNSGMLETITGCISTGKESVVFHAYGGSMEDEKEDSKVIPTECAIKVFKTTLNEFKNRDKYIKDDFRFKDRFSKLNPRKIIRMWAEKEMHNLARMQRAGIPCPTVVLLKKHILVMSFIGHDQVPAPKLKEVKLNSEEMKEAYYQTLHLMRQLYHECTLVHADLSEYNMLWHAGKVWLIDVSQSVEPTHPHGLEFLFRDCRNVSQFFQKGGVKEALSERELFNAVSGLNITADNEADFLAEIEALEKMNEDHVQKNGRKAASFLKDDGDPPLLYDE

Chain of Serine/threonine-protein kinase 35 (Homo sapiens) (Q8TDR2 whole entry): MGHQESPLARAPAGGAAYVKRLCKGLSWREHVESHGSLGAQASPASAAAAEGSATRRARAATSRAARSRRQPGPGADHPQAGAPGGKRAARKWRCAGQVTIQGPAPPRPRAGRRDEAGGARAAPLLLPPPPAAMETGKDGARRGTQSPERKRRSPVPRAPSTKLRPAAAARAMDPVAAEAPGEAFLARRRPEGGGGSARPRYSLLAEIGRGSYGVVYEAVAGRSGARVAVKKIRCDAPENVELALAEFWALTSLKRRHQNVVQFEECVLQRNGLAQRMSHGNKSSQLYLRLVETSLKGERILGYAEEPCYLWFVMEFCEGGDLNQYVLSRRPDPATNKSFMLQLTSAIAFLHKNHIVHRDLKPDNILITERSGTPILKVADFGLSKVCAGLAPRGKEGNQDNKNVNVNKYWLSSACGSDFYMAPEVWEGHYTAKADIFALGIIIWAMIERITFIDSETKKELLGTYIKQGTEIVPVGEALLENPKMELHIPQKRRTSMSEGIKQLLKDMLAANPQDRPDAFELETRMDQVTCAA
Chain of Tyrosine-protein kinase Lck (P06239 whole entry): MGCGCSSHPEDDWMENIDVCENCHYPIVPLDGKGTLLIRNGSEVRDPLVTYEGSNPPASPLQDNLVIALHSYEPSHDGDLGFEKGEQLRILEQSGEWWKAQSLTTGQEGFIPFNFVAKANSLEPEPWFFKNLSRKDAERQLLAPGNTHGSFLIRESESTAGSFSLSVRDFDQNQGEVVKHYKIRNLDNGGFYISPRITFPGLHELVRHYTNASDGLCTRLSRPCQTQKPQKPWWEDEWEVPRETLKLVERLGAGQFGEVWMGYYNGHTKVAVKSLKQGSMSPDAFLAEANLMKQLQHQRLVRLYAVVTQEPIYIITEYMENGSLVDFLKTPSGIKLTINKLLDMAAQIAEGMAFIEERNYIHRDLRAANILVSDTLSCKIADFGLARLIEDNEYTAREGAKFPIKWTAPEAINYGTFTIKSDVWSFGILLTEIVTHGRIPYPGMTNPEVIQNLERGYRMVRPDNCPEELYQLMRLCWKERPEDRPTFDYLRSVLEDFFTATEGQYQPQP
Chain of Serine/threonine-protein kinase Nek4 (Homo sapiens) (P51957 whole entry, looked up): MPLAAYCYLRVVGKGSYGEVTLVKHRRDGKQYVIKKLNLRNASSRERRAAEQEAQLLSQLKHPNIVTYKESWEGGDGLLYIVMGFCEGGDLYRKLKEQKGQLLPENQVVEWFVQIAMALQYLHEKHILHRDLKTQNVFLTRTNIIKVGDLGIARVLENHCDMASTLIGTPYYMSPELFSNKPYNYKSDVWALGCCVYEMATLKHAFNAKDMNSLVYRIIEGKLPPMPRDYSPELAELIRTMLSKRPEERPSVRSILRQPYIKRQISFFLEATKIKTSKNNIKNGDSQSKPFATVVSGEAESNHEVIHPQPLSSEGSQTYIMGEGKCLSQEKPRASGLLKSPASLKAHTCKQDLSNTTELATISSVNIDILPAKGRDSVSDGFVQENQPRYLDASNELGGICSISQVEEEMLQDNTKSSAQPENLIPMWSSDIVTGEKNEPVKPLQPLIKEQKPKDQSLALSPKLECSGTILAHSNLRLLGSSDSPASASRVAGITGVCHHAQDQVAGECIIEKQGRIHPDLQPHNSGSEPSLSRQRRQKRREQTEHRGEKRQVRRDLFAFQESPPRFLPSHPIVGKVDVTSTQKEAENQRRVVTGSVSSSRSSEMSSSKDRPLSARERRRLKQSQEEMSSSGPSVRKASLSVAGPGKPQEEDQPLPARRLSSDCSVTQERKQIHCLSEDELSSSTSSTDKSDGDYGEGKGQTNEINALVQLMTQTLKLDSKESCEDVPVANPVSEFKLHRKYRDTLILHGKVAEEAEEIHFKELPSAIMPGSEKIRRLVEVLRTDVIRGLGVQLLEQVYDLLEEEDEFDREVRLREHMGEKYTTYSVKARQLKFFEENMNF
Chain of Ribosomal protein S6 kinase alpha-5 (Homo sapiens) (O75582 whole entry, looked up): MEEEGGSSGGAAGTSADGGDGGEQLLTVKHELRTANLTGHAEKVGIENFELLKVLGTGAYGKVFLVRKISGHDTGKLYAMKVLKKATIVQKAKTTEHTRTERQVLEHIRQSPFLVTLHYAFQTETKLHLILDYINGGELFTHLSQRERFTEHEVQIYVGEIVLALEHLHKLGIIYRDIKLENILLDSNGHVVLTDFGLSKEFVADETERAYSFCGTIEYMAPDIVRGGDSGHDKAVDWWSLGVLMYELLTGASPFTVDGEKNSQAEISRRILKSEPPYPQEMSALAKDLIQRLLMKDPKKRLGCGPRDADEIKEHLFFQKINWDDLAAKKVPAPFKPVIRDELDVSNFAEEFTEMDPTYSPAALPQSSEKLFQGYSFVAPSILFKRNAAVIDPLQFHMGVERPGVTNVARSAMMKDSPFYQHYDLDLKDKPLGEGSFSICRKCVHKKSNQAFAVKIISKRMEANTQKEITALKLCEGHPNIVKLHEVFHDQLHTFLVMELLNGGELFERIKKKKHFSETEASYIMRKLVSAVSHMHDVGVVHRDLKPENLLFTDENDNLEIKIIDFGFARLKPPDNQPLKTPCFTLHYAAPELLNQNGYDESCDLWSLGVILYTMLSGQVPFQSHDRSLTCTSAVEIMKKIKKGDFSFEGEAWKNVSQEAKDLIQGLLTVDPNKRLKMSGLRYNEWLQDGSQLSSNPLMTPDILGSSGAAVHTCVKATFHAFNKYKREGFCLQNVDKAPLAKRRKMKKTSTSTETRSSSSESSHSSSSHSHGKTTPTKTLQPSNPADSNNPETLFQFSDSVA
Chain of Serine/threonine-protein kinase Nek7 (Homo sapiens) (Q8TDX7 whole entry, looked up): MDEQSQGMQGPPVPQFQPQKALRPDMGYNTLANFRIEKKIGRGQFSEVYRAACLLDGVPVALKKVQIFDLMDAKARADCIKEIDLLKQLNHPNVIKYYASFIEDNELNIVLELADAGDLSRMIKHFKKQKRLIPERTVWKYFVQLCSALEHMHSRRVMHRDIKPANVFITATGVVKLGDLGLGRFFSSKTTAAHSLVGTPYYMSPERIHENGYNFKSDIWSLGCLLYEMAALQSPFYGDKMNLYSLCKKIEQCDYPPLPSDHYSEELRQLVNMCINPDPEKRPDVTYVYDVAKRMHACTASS
Chain of Serine/threonine-protein kinase 33 (Homo sapiens) (Q9BYT3 whole entry, looked up): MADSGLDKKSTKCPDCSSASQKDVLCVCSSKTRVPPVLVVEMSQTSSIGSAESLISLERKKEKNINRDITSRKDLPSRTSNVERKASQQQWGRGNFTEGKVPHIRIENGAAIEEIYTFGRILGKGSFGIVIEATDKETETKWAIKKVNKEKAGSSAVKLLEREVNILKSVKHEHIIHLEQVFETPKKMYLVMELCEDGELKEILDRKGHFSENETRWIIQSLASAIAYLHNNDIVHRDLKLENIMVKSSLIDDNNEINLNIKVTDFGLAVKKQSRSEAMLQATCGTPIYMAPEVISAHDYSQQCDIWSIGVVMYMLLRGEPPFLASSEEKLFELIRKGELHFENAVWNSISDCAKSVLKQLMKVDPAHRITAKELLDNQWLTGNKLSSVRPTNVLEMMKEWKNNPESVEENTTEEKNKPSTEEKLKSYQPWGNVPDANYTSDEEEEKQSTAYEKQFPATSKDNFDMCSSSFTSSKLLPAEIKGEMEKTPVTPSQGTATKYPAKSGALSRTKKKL
Chain of Phosphatidylinositol 4-kinase beta (Q9UBF8 2-816 limits assumed): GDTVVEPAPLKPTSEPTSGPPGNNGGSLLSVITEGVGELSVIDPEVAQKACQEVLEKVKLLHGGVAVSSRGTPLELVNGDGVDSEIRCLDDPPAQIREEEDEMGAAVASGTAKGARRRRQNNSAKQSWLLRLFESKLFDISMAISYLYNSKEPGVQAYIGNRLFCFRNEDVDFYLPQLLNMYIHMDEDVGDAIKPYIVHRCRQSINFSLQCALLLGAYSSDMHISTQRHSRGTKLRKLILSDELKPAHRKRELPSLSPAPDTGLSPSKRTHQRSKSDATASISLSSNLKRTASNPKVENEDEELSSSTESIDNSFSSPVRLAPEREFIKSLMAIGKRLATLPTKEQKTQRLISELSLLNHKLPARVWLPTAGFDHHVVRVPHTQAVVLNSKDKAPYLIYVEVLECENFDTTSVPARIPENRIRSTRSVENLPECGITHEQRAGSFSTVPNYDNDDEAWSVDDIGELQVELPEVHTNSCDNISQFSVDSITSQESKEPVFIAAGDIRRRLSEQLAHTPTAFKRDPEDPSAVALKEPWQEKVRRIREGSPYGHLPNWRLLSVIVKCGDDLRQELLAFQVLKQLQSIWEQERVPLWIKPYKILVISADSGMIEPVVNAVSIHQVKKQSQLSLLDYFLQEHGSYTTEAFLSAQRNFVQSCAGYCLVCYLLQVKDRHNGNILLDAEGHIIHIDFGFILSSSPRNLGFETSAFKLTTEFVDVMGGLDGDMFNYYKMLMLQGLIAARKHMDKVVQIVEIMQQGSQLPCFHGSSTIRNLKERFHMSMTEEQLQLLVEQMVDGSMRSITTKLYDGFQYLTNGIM

Question: For `C=CC(=O)Nc1ccc(C(=O)Nc2[nH]nc3c2CN(C(=O)N[C@H](CN(C)C)c2ccccc2)C3(C)C)cc1`, which % of engagement [1] is on record?
Answer: The % of engagement was 5.7%.

Question: And the % of engagement [2]?
Answer: Its % of engagement is -4.1%.

Question: Which % of control [3] does the source give for `COCC(=O)NC/C=C/c1ccc2ncnc(Nc3ccc(Oc4ccc(C)nc4)c(C)c3)c2c1` [CP-724714] here?
Answer: Its % of control is 100%.

Question: Which % of control [4] does the source give for `Cc1cc(F)c(C(=O)Nc2cccc(-c3nncn3C(C)C)n2)cc1-n1cnc(C2CC2)c1` here?
Answer: Its % of control is 100%.

Question: Which % of control [5] does the source give for `O=C(NOC[C@H](O)CO)c1ccc(F)c(F)c1Nc1ccc(I)cc1F` here?
Answer: The % of control was 79%.

Question: How did the % of inhibition [6] turn out when `Cc1cnc(Nc2ccc(F)cc2Cl)nc1-c1c[nH]c(C(=O)N[C@H](CO)c2cccc(Cl)c2)c1` was run?
Answer: Its % of inhibition is 3%.

Question: How did the IC50 [7] turn out when `CCC(=O)N1CC[C@H](Nc2ncnc3c2CN(c2cnc(OC)c(C(F)(F)F)c2)CC3)C1` [LENIOLISIB] was run?
Answer: Its IC50 is over 10 µM.

Question: How did the % of control [8] turn out when `CNC(=O)Nc1ccc(-c2nc(N3CC4CCC(C3)O4)c3cnn(C4CCC5(CC4)OCCO5)c3n2)cc1` was run?
Answer: Its % of control is 95%.

Question: Which % of control [9] does the source give for `CN(C)CCOc1ccc(-c2nc(-c3ccncc3)c(-c3ccc4c(c3)CC/C4=N\O)[nH]2)cc1` here?
Answer: The % of control was 100%.

Question: With `CN(C)C/C=C/C(=O)Nc1ccc(C(=O)N2CCCC(Nc3ncc(Cl)c(-c4c[nH]c5ccccc45)n3)C2)cc1` (stereo not given) as the molecule, how does the % of control [10] read?
Answer: The % of control was 69%.

From ChEMBL document CHEMBL5465560, “Selectivity Literature for EUbOPEN Chemogenomic Library” (2024)
